Biological target: T1, xanthine oxidase found in milk (Bos taurus, UniProt P80457)
T1 construct: purchased
Experiment: Inhibition of the action of xanthine oxidase in vitro (U.V. spectrophotometry, formation of uric acid from hypoxanthine)
Assay type: biochemical
Settings: compound at 10^-5 M; hypoxanthine substrate, pH 7.4, 37° C.
Protocol: This trial was performed with xanthine oxidase found in milk. The activity of the enzymatic preparation was measured by following the formation of uric acid starting from hypoxanthine in the presence of oxygen and of a phosphate buffer solution.
(§1) The experimental procedure described hereunder was used:
In the absorption cell, the following solutions were introduced:
1.5 ml of a 0.1 molar phosphate buffer solution (pH=7.4) saturated with oxygen.
0.3 ml of a 1 m molar solution of ethylene diamine tetraacetate.
0.01 ml of a commercial xanthine oxidase solution having a known concentration in enzyme.
0.01 ml of a 3.10^-3 molar ethanolic solution of the compound to be tested.
The contents of the absorption cell were allowed to incubate for 2 minutes and then the enzymatic reaction was started by adding 0.3 ml of a 10^-3 molar solution of hypoxanthine to the absorption cell. The reaction was followed by spectrophotometric recording of the oxidation rate of hypoxanthine at 293 nm and at 37° C. The optical density was automatically registered. The same measurements were performed with a control solution containing all the ingredients referred to above except the compound being tested.
In this way, a curve representing the variation in optical density in comparison with time was obtained with the solution containing the inhibitor on the one hand and devoid of inhibitor on the other. The slope of both curves was measured and expressed in the number of mols of uric acid formed in one minute. Thus, it was possible to compare the values obtained and calculate, in percent, the inhibition of the activity of xanthine oxidase provoked by a compound of the invention.

T1 sequence (P80457 whole entry): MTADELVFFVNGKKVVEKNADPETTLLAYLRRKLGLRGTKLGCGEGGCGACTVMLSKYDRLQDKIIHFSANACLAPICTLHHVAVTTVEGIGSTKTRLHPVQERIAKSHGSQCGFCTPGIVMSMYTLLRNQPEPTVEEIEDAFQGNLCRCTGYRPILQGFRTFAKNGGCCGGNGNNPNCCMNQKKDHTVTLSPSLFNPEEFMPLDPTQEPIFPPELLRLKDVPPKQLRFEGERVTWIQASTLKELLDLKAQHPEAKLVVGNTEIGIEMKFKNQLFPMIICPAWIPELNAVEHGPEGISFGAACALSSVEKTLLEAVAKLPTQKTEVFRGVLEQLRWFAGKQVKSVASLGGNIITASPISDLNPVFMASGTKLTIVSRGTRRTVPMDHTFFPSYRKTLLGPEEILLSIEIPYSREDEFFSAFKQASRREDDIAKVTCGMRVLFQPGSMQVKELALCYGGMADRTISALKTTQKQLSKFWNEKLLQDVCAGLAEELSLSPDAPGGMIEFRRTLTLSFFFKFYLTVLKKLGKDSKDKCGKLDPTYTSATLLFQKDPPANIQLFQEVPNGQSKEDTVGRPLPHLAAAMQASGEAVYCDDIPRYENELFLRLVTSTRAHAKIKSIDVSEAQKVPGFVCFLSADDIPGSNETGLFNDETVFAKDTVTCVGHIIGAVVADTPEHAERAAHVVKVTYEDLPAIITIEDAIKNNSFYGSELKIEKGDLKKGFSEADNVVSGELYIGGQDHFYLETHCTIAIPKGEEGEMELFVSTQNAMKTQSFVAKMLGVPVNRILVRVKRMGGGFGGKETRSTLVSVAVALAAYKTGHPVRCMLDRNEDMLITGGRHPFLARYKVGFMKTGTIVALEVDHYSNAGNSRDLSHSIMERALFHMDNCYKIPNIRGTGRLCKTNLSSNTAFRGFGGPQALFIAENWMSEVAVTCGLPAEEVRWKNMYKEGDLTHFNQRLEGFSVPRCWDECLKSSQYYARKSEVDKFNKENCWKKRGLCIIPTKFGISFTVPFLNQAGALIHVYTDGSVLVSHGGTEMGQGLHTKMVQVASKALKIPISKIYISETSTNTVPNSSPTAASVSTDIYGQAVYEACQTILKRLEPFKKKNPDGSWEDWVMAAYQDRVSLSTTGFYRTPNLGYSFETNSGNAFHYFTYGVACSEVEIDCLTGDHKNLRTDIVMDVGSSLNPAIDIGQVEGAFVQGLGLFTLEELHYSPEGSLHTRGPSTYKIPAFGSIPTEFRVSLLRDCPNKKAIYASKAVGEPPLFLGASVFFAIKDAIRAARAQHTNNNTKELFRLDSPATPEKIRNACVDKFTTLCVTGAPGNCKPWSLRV

| SMILES | inhibition at 10 µM [%] |
| --- | --- |
| CC(C)c1cc2ccccn2c1C(=O)c1ccc(O)c(Br)c1 [Isopropyl H H Br, 2-Isopropyl-3-(3-bromo-4-hydroxy-benzoyl)-indolizine] | 94 |
| CCc1c(Cl)c2ccccn2c1C(=O)c1ccc(O)c(Br)c1 [Ethyl Cl Br H, 1-Chloro-2-ethyl-3-(3-bromo-4-hydroxy-benzoyl)-indolizine] | 34 |
| Cc1ccc(-c2c(Br)c3ccccn3c2C(=O)c2ccc(O)cc2)cc1 [4-Methyl-phenyl Br H H, 1-Bromo-2-(4-methyl-phenyl)-3-(4-hydroxy-benzoyl)-indolizine] | 48 |
| CCc1cc2ccccn2c1C(=O)c1ccc(O)c(OC)c1 [Ethyl H H OCH3, 2-Ethyl-2-(3-methoxy-4-hydroxy-benzoyl)-indolizine] | 57 |
| CCc1c(Cl)c2ccccn2c1C(=O)c1cc(Br)c(O)c(Br)c1 [Ethyl Cl Br Br, 1-Chloro-2-ethyl-3-(3,5-dibromo-4-hydroxy-benzoyl)-indolizine] | 64 |
| CCc1c(Br)c2ccccn2c1C(=O)c1ccc(O)c(Br)c1 [Ethyl Br Br H, 1-Bromo-2-ethyl-3-(3-bromo-4-hydroxy-benzoyl)-indolizine] | 93 |
| O=C(c1ccc(O)c(Br)c1)c1c(-c2ccc(Br)cc2)cc2ccccn12 [4-Bromo-phenyl H H Br, 2-(4-Bromo-phenyl)-3-(3-bromo-4-hydroxy-benzoyl)-indolizine] | 22 |

The next lines start with the values.

| inhibition at 10 µM [%] | SMILES |
| --- | --- |
| 74 | Cc1cc2ccccn2c1C(=O)c1ccc(O)c(Br)c1 [Methyl H H Br, 2-Methyl-3-(3-bromo-4-hydroxy-benzoyl)-indolizine] |
| 44 | Cc1c(Br)c2ccccn2c1C(=O)c1ccc(O)c(Cl)c1 [Methyl Br Cl H, 1-Bromo-2-methyl-3-(3-chloro-4-hydroxy-benzoyl)-indolizine] |
| 97 | CCCc1c(Br)c2ccccn2c1C(=O)c1ccc(O)c(Br)c1 [n-Propyl Br Br H, 1-Bromo-2-n-propyl-3-(3-bromo-4-hydroxy-benzoyl)-indolizine] |
| 84 | CCCc1c(Br)c2ccccn2c1C(=O)c1ccc(O)c(Cl)c1 [n-Propyl Br H Cl, 1-Bromo-2-n-propyl-3-(3-chloro-4-hydroxy-benzoyl)-indolizine] |
| 46 | Cc1c(Br)c2ccccn2c1C(=O)c1cc(Cl)c(O)c(Cl)c1 [Methyl Br Cl Cl, 1-Bromo-2-methyl-3-(3,5-dichloro-4-hydroxy-benzoyl)-indolizine] |

Biological target: T2, adenosine deaminase obtained from calf intestine (Bos taurus, UniProt P56658)
T2 construct: purchased
T2 sequence (P56658 1-363): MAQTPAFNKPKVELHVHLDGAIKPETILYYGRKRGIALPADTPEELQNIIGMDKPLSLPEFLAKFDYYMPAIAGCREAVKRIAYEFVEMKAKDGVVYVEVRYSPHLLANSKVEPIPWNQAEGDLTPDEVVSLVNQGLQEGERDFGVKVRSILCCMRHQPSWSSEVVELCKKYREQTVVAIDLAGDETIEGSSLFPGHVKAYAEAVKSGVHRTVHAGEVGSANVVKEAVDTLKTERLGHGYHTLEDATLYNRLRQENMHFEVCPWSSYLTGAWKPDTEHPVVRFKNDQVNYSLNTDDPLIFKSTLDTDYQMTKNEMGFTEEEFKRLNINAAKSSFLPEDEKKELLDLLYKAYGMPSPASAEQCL
Experiment: Inhibition of the action of adenosine deaminase in vitro (decrease in absorbance at 265 nm)
Assay type: biochemical
Settings: 5.10^-5 M adenosine; pH 7.4, 30° C.
Protocol: This test was performed with adenosine deaminase obtained from calf intestine.
as §1
In the absorption cell the following solutions were introduced:
2.7 ml of a 0.1 molar phosphate buffer solution (pH=7.4)
0.3 ml of a 10^-4 or 5.10^-4 molar solution of adenosine in the phosphate buffer solution (final concentration in adenosine: 10^-5 or 5.10^-5 mol) 0.01 ml of a 3.10^-3 molar ethanolic solution of the compound to be studied (about 10 milliunits)
The contents of the absorption cell were allowed to incubate for 2 minutes and then the enzymatic reaction was started by adding 0.03 ml of a commercial adenosine deaminase solution having a known concentration in enzyme. The reaction was performed at 30° C. and followed by spectrophotometric recording of the decrease in absorbance at 265 nm due to the transformation of adenosine into inosine by means of adenosine deaminase. This enzymatic reaction can be represented by the following equation: [formula]
The same measurements were performed with a control solution containing all the ingredients referred to above except the compound being studied. Curves were then plotted representing the decrease in absorbance in comparison with time obtained on the one hand with the solution containing the inhibitor and on the other with the control solution.
The slope of both curves was measured and expressed in the number of mols of inosine formed in one minute. After that, the percent of inhibition of the activity of adenosine deaminase provoked by a compound of the invention was calculated.

| SMILES | Inhibition of the action of adenosine deaminase in vitro (in %) At 5.10^-5 M adenosine [%] |
| --- | --- |
| O=C(c1ccc(O)cc1)c1c(-c2cccc(Br)c2)c(Cl)c2ccccn12 [3-Bromo-phenyl Cl H H, 1-Chloro-2-(3-bromo-phenyl)-3-(4-hydroxy-benzoyl)indolizine] | 55 |
| CC(C)c1c(Br)c2ccccn2c1C(=O)c1ccc(O)c(Br)c1 [Isopropyl Br Br H, 1-Bromo-2-isopropyl-3-(3-bromo-4-hydroxy-benzoyl)-indolizine] | 54 |
| COc1cc(C(=O)c2c(-c3ccc(F)cc3)cc3ccccn23)ccc1O [4-Fluoro-phenyl H H OCH3, 2-(4-Fluoro-phenyl)-3-(3-methoxy-4-hydroxy-benzoyl)-indolizine] | 39 |

The next lines start with the values.

| Inhibition of the action of adenosine deaminase in vitro (in %) At 5.10^-5 M adenosine [%] | SMILES |
| --- | --- |
| 57 | O=C(c1cc(Cl)c(O)c(Cl)c1)c1c(-c2ccccc2)c(Cl)c2ccccn12 [Phenyl Cl Cl Cl, 1-Chloro-2-phenyl-3-(3,5-dichloro-4-hydroxy-benzoyl)-indolizine] |
| 82 | COc1c(-c2ccccc2)c(C(=O)c2ccc(O)c(Cl)c2)n2ccccc12 [Phenyl OCH3 Cl H, 1-Methoxy-2-phenyl-3-(3-chloro-4-hydroxy-benzoyl)-indolizine] |
| 91 | COc1c(-c2ccccc2)c(C(=O)c2ccc(O)c(Br)c2)n2ccccc12 [Phenyl OCH3 Br H, 1-Methoxy-2-phenyl-3-(3-bromo-4-hydroxy-benzoyl)-indolizine] |
| 52 | O=C(c1ccc(O)cc1)c1c(-c2ccccc2)c(Br)c2ccccn12 [Phenyl Br H H, 1-Bromo-2-phenyl-3-(4-hydroxy-benzoyl)-indolizine] |
| 86 | O=C(c1ccc(O)c(Cl)c1)c1c(-c2ccccc2)c(Br)c2ccccn12 [Phenyl Br Cl H, 1-Bromo-2-phenyl-3-(3-chloro-4-hydroxy-benzoyl)-indolizine] |

Same assay, conditions: 10^-5 M adenosine; pH 7.4, 30° C.

| SMILES | Inhibition of the action of adenosine deaminase in vitro (in %) At 10^-5 M adenosine |
| --- | --- |
| O=C(c1ccc(O)c(Br)c1)c1c(-c2ccc(F)cc2)cc2ccccn12 [4-Fluoro-phenyl H H Br, 2-(4-Fluoro-phenyl)-3-(3-bromo-4-hydroxy-benzoyl)-indolizine] | 60% |
| CC(C)c1oc2ccccc2c1C(=O)c1cc(Br)c(O)c(Br)c1 [2-isopropyl-3-(3,5-dibromo-4-hydroxy-benzoyl)-benzofuran, reference compound] | totally inactive |
| CCc1oc2ccccc2c1C(=O)c1ccc(O)cc1 [2-ethyl-3-(4-hydroxy-benzoyl)-benzofuran, reference compound] | 18% |
| CCCCc1oc2ccccc2c1C(=O)c1cc(Br)c(O)c(Br)c1 [2-n-butyl-3-(3,5-dibromo-4-hydroxy-benzoyl)-benzofuran, reference compound] | totally inactive |
| CCc1oc2ccccc2c1C(=O)c1cc(Br)c(O)c(Br)c1 [2-ethyl-3-(3,5-dibromo-4-hydroxy-benzoyl)-benzofuran, reference compound] | totally inactive |
| CC(C)c1c(Br)c2ccccn2c1C(=O)c1cc(Br)c(O)c(Br)c1 [Isopropyl Br Br Br, 1-Bromo-2-isopropyl-3-(3,5-dibromo-4-hydroxy-benzoyl)-indolizine] | 57% |
| O=C(c1cc(Br)c(O)c(Br)c1)c1c(-c2ccccc2)oc2ccccc12 [2-phenyl-3-(3,5-dibromo-4-hydroxy-benzoyl)-benzofuran, reference compound] | 15% |
| CCc1oc2ccccc2c1C(=O)c1cc(I)c(O)c(I)c1 [2-ethyl-3-(3,5-diiodo-4-hydroxy-benzoyl)-benzofuran, reference compound] | totally inactive |
| CC(C)c1c(Br)c2ccccn2c1C(=O)c1ccc(O)c(Br)c1 [Isopropyl Br Br H, 1-Bromo-2-isopropyl-3-(3-bromo-4-hydroxy-benzoyl)-indolizine] | 75% |

Results, then the compound that gave them:

| Inhibition of the action of adenosine deaminase in vitro (in %) At 10^-5 M adenosine | SMILES |
| --- | --- |
| 78% | O=C(c1ccc(O)c(Br)c1)c1c(-c2ccccc2)cc2ccccn12 [Phenyl H H Br, 2-Phenyl-3-(3-bromo-4-hydroxy-benzoyl)-indolizine] |
| 60% | CCCCc1cc2ccccn2c1C(=O)c1ccc(O)c(Br)c1 [n-Butyl H H Br, 2-n-Butyl-3-(3-bromo-4-hydroxy-benzoyl)-indolizine] |
| 45% | CCCCc1c(Br)c2ccccn2c1C(=O)c1ccc(O)cc1 [n-Butyl Br H H, 1-Bromo-2-n-butyl-3-(4-hydroxy-benzoyl)-indolizine] |
| 58% | O=C(c1ccc(O)c(Cl)c1)c1c(-c2ccccc2)cc2ccccn12 [Phenyl H H Cl, 2-Phenyl-3-(3-chloro-4-hydroxy-benzoyl)-indolizine] |
| 42% | CCCc1cc2ccccn2c1C(=O)c1ccc(O)c(Cl)c1 [n-Propyl H H Cl, 2-n-Propyl-3-(3-chloro-4-hydroxy-benzoyl)-indolizine] |
